The subject of assay [1] is S. aureus CVCC546. Type of assay: cell-based, Staphylococcus aureus. As for the experimental part:
(§1) The minimum inhibitory concentration (MIC) and minimum bactericidal concentration (MBC) of peptides were determined by the microtiter broth dilution method according to Clinical and Laboratory Standards Institute (CLSI) guidelines. […] PBS was used as the negative control. […] The MBC value was calculated as the lowest concentration of peptides resulting in a 99.9% reduction of the original inoculum. All experiments were repeated three times.

Assay [2] relates to Staphylococcus aureus ATCC43300. The format is cell-based. As to conditions: ATCC43300, 18 h. As for the experimental part: as §1
In assay [3] the test system is Escherichia coli CVCC195. Type of assay: cell-based. As for the experimental part: as §1
Assay [4] deals with S. typhimurium CVCC533. Type of assay: cell-based, Salmonella typhimurium. As to the method:
as §1

Assay [5] has as its system E. coli, S. typhimurium and S. aureus. The format is cell-based. As to conditions: 18 h. As to the method: as §1
For assay [6], the system named is E. coli 0111: B4 LPS. The assay is described as follows: BC (BODIPY-TR-cadaverine) displacement assay, binding to LPS. Details: species or system Escherichia coli; unit not given here. As to conditions: Fig. 4a source data, mean. As to the method: The binding of peptides to LPS was determined according to the method described previously[34],[59]. In brief, E. coli 0111: B4 LPS (40 μg/mL) and BODIPY-TR-cadaverine (BC) (10 μM) were mixed in 50 mM Tris buffer (pH = 7.4) in equal proportions and added to a 96-well black plate (180 μL/well) in the dark. Different concentrations of chimeric peptide R7 and its parental (20 μL) were added into each well and detected by a fluorescence spectrophotometry at room temperature (excitation wavelength 580 nm, emission wavelength 620 nm). The change in relative fluorescence was recorded and the BC displacement rate was calculated. Polymycin B (PMB) was used as the positive control.

[7] abbreviates: lowest concentration giving 99.9% reduction of the inoculum, repeated three times.
Where [8] appears, read: microtiter broth dilution, 10^5 CFU/mL, 37 °C, 16 ~ 18 h, repeated three times.

Converted amounts (≈) assume the structure as drawn. Where two headings read alike, the source gives them in different places. Residues, ends and D or L forms follow the SMILES beside them. No end group written: not given here.

The MIC is the smallest concentration in the dilution series that meets the test's criterion for growth inhibition. As usually defined, the MBC is the lowest tested concentration that kills the bacteria rather than only halting them.

With `CSCC[C@H](NC(=O)[C@H](CCCNC(=N)N)NC(=O)[C@H](Cc1c[nH]c2ccccc12)NC(=O)[C@H](C)NC(=O)[C@H](Cc1c[nH]c2ccccc12)NC(=O)[C@H](CCCNC(=N)N)NC(=O)[C@H](Cc1c[nH]c2ccccc12)NC(=O)[C@H](C)NC(=O)[C@H](CCCCN)NC(=O)[C@H](Cc1ccccc1)NC(=O)[C@@H](N)CCCNC(=N)N)C(=O)N[C@@H](CCCCN)C(=O)N[C@@H](CCCCN)C(=O)N[C@@H](CC(C)C)C(=O)N[C@@H](C)C(=O)N[C@@H](C)C(=O)N1CCC[C@H]1C(=O)N[C@@H](CO)C(=O)O` [R-L7] (H-RFKAWRWAWRMKKLAAPS-OH), the MIC worked out at 18.1 µM (≈ 41.4 µg/mL) in assay [1] (CVCC546, 18 h); 18.1 µM (≈ 41.4 µg/mL) in assay [2]; 2.26 µM (≈ 5.17 µg/mL) in assay [3] (CVCC195, 18 h); 18.1 µM (≈ 41.4 µg/mL) in assay [4] (CVCC533, 18 h).
For the compound `CC(C)[C@H](NC(=O)[C@H](CCCCN)NC(=O)[C@H](Cc1c[nH]c2ccccc12)NC(=O)[C@H](CCCNC(=N)N)NC(=O)CNC(=O)[C@H](CCC(N)=O)NC(=O)[C@@H](NC(=O)[C@@H](N)CCCNC(=N)N)C(C)C)C(=O)N[C@@H](CCCNC(=N)N)C(=O)N[C@@H](C)C(=O)N[C@@H](CO)C(=O)N[C@@H](Cc1ccccc1)C(=O)N[C@@H](Cc1ccccc1)C(=O)N[C@@H](CCCCN)C(=O)N[C@@H](CCCNC(=N)N)C(=O)N[C@@H](CCCCN)C(=O)N[C@@H](CCCNC(=N)N)C(=O)O` [LBP14-RKR] (H-RVQGRWKVRASFFKRKR-OH), the MIC in assay [1] (CVCC546, 18 h) turned out to be 9.06 µM (≈ 20 µg/mL); in assay [2], 4.53 µM (≈ 9.99 µg/mL); in assay [3] (CVCC195, 18 h) it was 2.26 µM (≈ 4.98 µg/mL); in assay [4] (CVCC533, 18 h) it was 4.53 µM (≈ 9.99 µg/mL).
On to “RVQGRWKVRASFFKEAAAKEAAAKFKAWRWAWRMKKLAAPS [A7]”, for which the MBC in assay [1] (CVCC546, 18 h) is over 36.2 µM; in assay [2], over 36.2 µM; in assay [3] (CVCC195, 18 h) it was 36.2 µM; in assay [4] (CVCC533, 18 h), over 36.2 µM. Moreover, the MIC is over 36.2 µM in assay [1] (CVCC546, 18 h); over 36.2 µM in assay [2]; 36.2 µM in assay [3] (CVCC195, 18 h); over 36.2 µM in assay [4] (CVCC533, 18 h). Moreover, the “antibacterial activity (MIC)” value in assay [5] was at least 18.1 µM.
For the compound polymyxin B [PMB, reference compound], the MBC was over 64 µM in assay [1] (setting [7]), 1 µM in assay [3] (setting [7]) and 8 µM in assay [4] (setting [7]). Moreover, the MIC was over 64 µM in assay [1] (setting [8]), 1 µM in assay [3] (setting [8]) and 8 µM in assay [4] (setting [8]). The “binding affinity to LPS” value in assay [6] (peptide concentration 0.05 μM) was found to be 10.8258; in assay [6] (peptide concentration 0.1 μM), 13.138; in assay [6] (peptide concentration 0.5 μM), 19.3303; in assay [6] (peptide concentration 1 μM) it was 24.2435; in assay [6] (peptide concentration 5 μM) it was 53.9917; in assay [6] (peptide concentration 10 μM) it was 65.3662. For the same compound, the entries for the “binding affinity to LPS” value in assay [6] (peptide concentration 50 μM) and in assay [6] (peptide concentration 100 μM) were 89.1421 and 85.6684, respectively.
For the compound `CC(C)[C@H](NC(=O)[C@H](CCCCN)NC(=O)[C@H](Cc1c[nH]c2ccccc12)NC(=O)[C@H](CCCNC(=N)N)NC(=O)CNC(=O)[C@H](CCC(N)=O)NC(=O)[C@@H](NC(=O)[C@@H](N)CCCNC(=N)N)C(C)C)C(=O)N[C@@H](CCCNC(=N)N)C(=O)N[C@@H](C)C(=O)N[C@@H](CO)C(=O)N[C@@H](Cc1ccccc1)C(=O)N[C@@H](Cc1ccccc1)C(=O)N[C@@H](CCCCN)C(=O)O` [LBP14, reference compound] (H-RVQGRWKVRASFFK-OH), the MBC in assay [1] (CVCC546, 18 h) is over 36.2 µM; in assay [2], 36.2 µM (≈ 63.9 µg/mL); in assay [3] (CVCC195, 18 h), 4.53 µM (≈ 8 µg/mL); in assay [4] (CVCC533, 18 h) it was 18.1 µM (≈ 31.9 µg/mL). In addition, the minimum inhibitory concentration (MIC) in assay [1] (CVCC546, 18 h) worked out at 36.2 µM (≈ 63.9 µg/mL); in assay [2] it was 36.2 µM (≈ 63.9 µg/mL); in assay [3] (CVCC195, 18 h), 4.53 µM (≈ 8 µg/mL); in assay [4] (CVCC533, 18 h) it was 18.1 µM (≈ 31.9 µg/mL).
Regarding `CC(C)[C@H](NC(=O)[C@H](CCCCN)NC(=O)[C@H](Cc1c[nH]c2ccccc12)NC(=O)[C@H](CCCNC(=N)N)NC(=O)CNC(=O)[C@H](CCC(N)=O)NC(=O)[C@@H](NC(=O)[C@@H](N)CCCNC(=N)N)C(C)C)C(=O)N[C@@H](CCCNC(=N)N)C(=O)N[C@@H](C)C(=O)N[C@@H](CO)C(=O)N[C@@H](Cc1ccccc1)C(=O)N[C@@H](Cc1ccccc1)C(=O)N[C@@H](CCCCN)C(=O)N[C@@H](CCCNC(=N)N)C(=O)N[C@@H](CCCCN)C(=O)N[C@@H](CCCNC(=N)N)C(=O)N[C@@H](CCCNC(=N)N)C(=O)O` [LBP14-RKRR] (H-RVQGRWKVRASFFKRKRR-OH), the minimum bactericidal concentration (MBC) in assay [1] (CVCC546, 18 h) came to 9.06 µM (≈ 21.4 µg/mL); in assay [3] (CVCC195, 18 h) it was 2.26 µM (≈ 5.34 µg/mL). The minimal inhibitory concentration (MIC) amounted to 9.06 µM (≈ 21.4 µg/mL) in assay [1] (CVCC546, 18 h); 4.53 µM (≈ 10.7 µg/mL) in assay [2]; 2.26 µM (≈ 5.34 µg/mL) in assay [3] (CVCC195, 18 h); 4.53 µM (≈ 10.7 µg/mL) in assay [4] (CVCC533, 18 h).
As for `CSCC[C@H](NC(=O)[C@H](CCCNC(=N)N)NC(=O)[C@H](Cc1c[nH]c2ccccc12)NC(=O)[C@H](C)NC(=O)[C@H](Cc1c[nH]c2ccccc12)NC(=O)[C@H](CCCNC(=N)N)NC(=O)[C@H](Cc1c[nH]c2ccccc12)NC(=O)[C@H](C)NC(=O)[C@H](CCCCN)NC(=O)[C@H](Cc1ccccc1)NC(=O)[C@H](CO)NC(=O)CNC(=O)CNC(=O)CNC(=O)CNC(=O)[C@H](CCCCN)NC(=O)[C@H](Cc1ccccc1)NC(=O)[C@H](Cc1ccccc1)NC(=O)[C@H](CO)NC(=O)[C@H](C)NC(=O)[C@H](CCCNC(=N)N)NC(=O)[C@@H](NC(=O)[C@H](CCCCN)NC(=O)[C@H](Cc1c[nH]c2ccccc12)NC(=O)[C@H](CCCNC(=N)N)NC(=O)CNC(=O)[C@H](CCC(N)=O)NC(=O)[C@@H](NC(=O)[C@@H](N)CCCNC(=N)N)C(C)C)C(C)C)C(=O)N[C@@H](CCCCN)C(=O)N[C@@H](CCCCN)C(=O)N[C@@H](CC(C)C)C(=O)N[C@@H](C)C(=O)N[C@@H](C)C(=O)N1CCC[C@H]1C(=O)N[C@@H](CO)C(=O)O` [G7] (H-RVQGRWKVRASFFKGGGGSFKAWRWAWRMKKLAAPS-OH), the minimal bactericidal concentration (MBC) in assay [1] (CVCC546, 18 h) was over 36.2 µM; in assay [2], over 36.2 µM; in assay [3] (CVCC195, 18 h), 18.1 µM (≈ 75.9 µg/mL). The minimum inhibitory concentration (MIC) was over 36.2 µM in assay [1] (CVCC546, 18 h); over 36.2 µM in assay [2]; 18.1 µM (≈ 75.9 µg/mL) in assay [3] (CVCC195, 18 h); over 36.2 µM in assay [4] (CVCC533, 18 h). In assay [5], the “antibacterial activity (MIC)” value was at least 18.1 µM.

The record behind these values is publication PMC10654507, “A cleavable chimeric peptide with targeting and killing domains enhances LPS neutralization and antibacterial properties against multi-drug resistant E. coli” (Communications Biology, 2023).
